The results in this text go back to ChEMBL document CHEMBL3856202, “Synthesis and screening of triazolopyrimidine scaffold as multi-functional agents for Alzheimer's disease therapies” (Eur J Med Chem, 2016).

Data set [1] addresses Amyloid-beta precursor protein (Homo sapiens) (UniProt P05067). The experiment in a line: Inhibition of amyloid beta (1 to 42) (unknown origin) aggregation assessed at 25 uM after 24 to 48 hrs by transmission electron microscopic analysis.
Data set [2] deals with SH-SY5Y. The experiment in a line: Neuroprotective activity in human SH-SY5Y cells assessed as reduction of amyloid beta (1 to 42)-induced neurotoxicity measured as cell viability preincubated 30 mins followed by amyloid beta (1 to 42) peptide addition for 24 hrs by MTT assay. Type of data set: functional, cell-based. (Tetrazolium dyes change colour on reduction, which living cells bring about.)

Data set [3] in a line: Cytotoxicity against human SH-SY5Y cells assessed as cell viability at 1 to 50 uM measured after 24 hrs by MTT assay. Type of data set: toxicity, cell-based.
Data set [4] in a line: Neuroprotective activity in human SH-SY5Y cells assessed as reduction of amyloid beta (1 to 42)-induced neurotoxicity measured as cell viability at 5 to 25 uM preincubated 30 mins followed by amyloid beta (1 to 42) peptide addition for 24 hrs by MTT assay relative to control. Type of data set: functional.
Data set [5] deals with SH-SY5Y. Briefly: Neuroprotective activity in human SH-SY5Y cells assessed as reduction of amyloid beta (1 to 42)-induced neurotoxicity measured as morphological changes preincubated 30 mins followed by amyloid beta (1 to 42) peptide addition for 24 hrs by microscopy. Type of data set: functional, cell-based.
For data set [6], the system named is SH-SY5Y. The experiment in a line: Neuroprotective activity in human SH-SY5Y cells assessed as reduction of H2O2-induced neurotoxicity measured as increase in cell viability at 1 to 20 uM incubated for 24 hrs with H2O2-challenge by MTT assay. The data set is classed as functional, cell-based.
Data set [7] has as its system SH-SY5Y. The experiment in a line: Neuroprotective activity in human SH-SY5Y cells assessed as reduction of H2O2-induced neurotoxicity measured as morphological changes at 10 uM incubated for 24 hrs with H2O2-challenge by microscopy. The data set is classed as functional, cell-based.
The target of another data set is Acetylcholinesterase (Electrophorus electricus, UniProt O42275).
For another data set, the target named is Cholinesterase (Equus caballus, UniProt P81908).
For data set [8], the target named is Amyloid-beta precursor protein (Homo sapiens) (UniProt P05067). Conditions: at 25 µM.
Description: Inhibition of amyloid beta (1 to 42) (unknown origin) self-aggregation at 25 uM measured after 48 hrs by ThT-assay
Data set [9] concerns the target Acetylcholinesterase (Electrophorus electricus) (UniProt O42275). Conditions: at 100 µM.
Description: Inhibition of electric eel AChE-mediated amyloid beta (1 to 42) (unknown origin) co-aggregation at 100 uM measured after 48 hrs by ThT-assay
The target in data set [10] is Cholinesterase (Equus caballus) (UniProt P81908). Briefly: Potency index, ratio of IC50 donepezil to IC50 for test compound against equine serum BuChE.
The target in data set [11] is Acetylcholinesterase (Electrophorus electricus) (UniProt O42275). The experiment in a line: Potency index, ratio of IC50 for galantamine to IC50 for test compound against electric eel AChE.
Data set [12] shares this target. The experiment in a line: Potency index, ratio of IC50 for rivastigmine to IC50 for test compound against electric eel AChE.
Data set [13] shares this target. Briefly: Potency index, ratio of IC50 for tacrine to IC50 for test compound against electric eel AChE.
For data set [14] the target is unchanged. To be noted: at 12 to 42 nM.

pIC50: −log10 of the molar value. The source made the active and inactive calls. The rule behind the calls is not given here.

Amyloid-beta precursor protein (Homo sapiens), sequence (P05067 whole entry): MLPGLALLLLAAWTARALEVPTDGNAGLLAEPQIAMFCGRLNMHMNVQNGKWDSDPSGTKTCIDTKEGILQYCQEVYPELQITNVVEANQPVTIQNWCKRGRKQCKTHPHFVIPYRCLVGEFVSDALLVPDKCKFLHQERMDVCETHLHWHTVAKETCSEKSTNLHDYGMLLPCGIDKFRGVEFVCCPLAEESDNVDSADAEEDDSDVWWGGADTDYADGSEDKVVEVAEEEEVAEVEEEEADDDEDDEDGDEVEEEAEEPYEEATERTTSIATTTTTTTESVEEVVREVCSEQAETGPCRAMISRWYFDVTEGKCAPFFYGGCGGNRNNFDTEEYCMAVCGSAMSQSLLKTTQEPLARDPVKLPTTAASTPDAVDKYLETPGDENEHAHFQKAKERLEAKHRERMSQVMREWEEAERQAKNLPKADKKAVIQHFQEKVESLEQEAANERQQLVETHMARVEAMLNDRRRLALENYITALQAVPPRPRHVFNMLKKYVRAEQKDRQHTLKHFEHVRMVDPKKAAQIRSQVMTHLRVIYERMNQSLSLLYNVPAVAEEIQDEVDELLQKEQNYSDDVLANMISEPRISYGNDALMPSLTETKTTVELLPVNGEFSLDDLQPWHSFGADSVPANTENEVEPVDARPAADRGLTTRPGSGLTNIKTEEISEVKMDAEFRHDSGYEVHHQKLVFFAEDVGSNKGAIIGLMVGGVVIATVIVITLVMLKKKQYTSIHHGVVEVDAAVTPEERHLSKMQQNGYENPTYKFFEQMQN
Acetylcholinesterase, sequence (O42275 whole entry): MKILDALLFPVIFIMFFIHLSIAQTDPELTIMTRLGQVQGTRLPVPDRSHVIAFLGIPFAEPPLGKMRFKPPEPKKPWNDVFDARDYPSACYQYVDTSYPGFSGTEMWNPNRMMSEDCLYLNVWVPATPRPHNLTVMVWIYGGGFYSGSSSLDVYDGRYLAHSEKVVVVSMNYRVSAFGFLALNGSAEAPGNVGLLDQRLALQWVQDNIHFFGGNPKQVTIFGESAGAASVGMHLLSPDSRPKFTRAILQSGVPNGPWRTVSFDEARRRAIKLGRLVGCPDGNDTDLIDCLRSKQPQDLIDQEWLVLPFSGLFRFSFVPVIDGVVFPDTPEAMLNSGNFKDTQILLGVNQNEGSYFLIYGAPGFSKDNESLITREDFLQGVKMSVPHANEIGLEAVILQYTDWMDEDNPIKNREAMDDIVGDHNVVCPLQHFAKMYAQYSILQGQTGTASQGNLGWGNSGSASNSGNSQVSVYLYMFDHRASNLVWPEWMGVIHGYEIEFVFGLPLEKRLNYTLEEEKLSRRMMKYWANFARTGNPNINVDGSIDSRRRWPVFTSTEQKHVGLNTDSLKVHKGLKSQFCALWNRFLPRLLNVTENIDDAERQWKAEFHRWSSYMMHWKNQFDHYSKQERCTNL
Acetylcholinesterase (Electrophorus electricus), sequence (O42275 24-633 limits assumed): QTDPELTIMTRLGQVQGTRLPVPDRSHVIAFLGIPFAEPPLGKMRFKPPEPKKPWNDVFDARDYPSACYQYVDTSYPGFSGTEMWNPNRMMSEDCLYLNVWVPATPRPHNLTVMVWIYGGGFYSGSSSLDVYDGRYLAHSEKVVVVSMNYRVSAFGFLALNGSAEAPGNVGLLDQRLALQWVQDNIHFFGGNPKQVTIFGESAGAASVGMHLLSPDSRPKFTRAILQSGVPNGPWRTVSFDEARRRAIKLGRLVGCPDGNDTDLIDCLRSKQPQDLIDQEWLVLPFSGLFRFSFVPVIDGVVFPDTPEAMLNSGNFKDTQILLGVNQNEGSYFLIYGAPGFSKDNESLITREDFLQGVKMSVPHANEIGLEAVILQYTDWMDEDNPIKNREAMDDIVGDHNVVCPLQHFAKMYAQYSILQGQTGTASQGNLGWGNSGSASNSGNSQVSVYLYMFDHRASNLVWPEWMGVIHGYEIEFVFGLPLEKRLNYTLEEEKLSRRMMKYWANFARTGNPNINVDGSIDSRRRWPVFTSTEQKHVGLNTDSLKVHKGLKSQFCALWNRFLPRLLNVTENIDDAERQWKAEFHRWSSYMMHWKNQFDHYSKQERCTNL
Cholinesterase, sequence (P81908 whole entry): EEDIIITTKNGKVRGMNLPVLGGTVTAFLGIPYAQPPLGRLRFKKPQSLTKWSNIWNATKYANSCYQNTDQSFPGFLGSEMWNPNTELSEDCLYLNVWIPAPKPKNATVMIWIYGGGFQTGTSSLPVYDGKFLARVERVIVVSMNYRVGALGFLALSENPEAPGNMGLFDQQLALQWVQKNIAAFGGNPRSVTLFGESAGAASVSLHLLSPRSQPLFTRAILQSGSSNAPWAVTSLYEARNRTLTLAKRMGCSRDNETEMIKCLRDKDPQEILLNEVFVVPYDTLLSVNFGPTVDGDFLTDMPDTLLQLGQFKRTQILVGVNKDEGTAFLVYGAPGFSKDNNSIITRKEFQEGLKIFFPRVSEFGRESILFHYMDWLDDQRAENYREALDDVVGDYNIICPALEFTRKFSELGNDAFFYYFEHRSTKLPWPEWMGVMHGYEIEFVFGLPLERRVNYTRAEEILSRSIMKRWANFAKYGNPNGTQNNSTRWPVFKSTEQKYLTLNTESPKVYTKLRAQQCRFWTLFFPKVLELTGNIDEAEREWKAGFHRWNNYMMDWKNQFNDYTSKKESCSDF
Cholinesterase (Equus caballus), sequence (P81908 whole entry): as above

As usually defined, the inhibition is the share of the control response that was lost under treatment. What is called pIC50 is the negative decadic logarithm of the IC50, by convention in mol/L. For the compound `CCOC(=O)c1cnc2ccc(OC)cc2c1N1CCN(c2cc(C)nc3ncnn23)CC1`, in [1], the inhibition entry is “Active”. Further, the Activity result was “Dose-dependent effect” in the data set on SH-SY5Y [2], “Non-Toxic” in data set [3] and 79 - 83% in [4]. Moreover, the outcome in the data set with SH-SY5Y [5], with SH-SY5Y [6] and with SH-SY5Y [7] was Active. The pIC50 was 6.12 against Acetylcholinesterase and 5.70 on Cholinesterase. Besides, the figures for the inhibition in data set [8] and in [9] were 61.6% and 68.7%, respectively.

Take `CCOC(=O)c1cnc2cc(C(F)(F)F)ccc2c1N1CCN(c2ncccc2C#N)CC1`: the pIC50 is 6.06 against Acetylcholinesterase and 6.01 against Cholinesterase. In addition, the inhibition in data set [8] turned out to be 44.2%; in [9] it was 47.8%.

Regarding `CCOC(=O)c1cnc2c(F)cccc2c1N1CCN(c2cc(C)nc3ncnn23)CC1`, the values for the Ratio IC50 in data set [10], in data set [11] and in data set [12] were 5, 32 and 46, respectively. Besides, in data set [1], the inhibition entry was “Active”. The Activity entry in the data set on SH-SY5Y [2] is “Dose-dependent effect”; in [3], “Non-Toxic”; in data set [4] it was 79 - 83%. For the same compound, the result in the data set with SH-SY5Y [5], in the data set with SH-SY5Y [6] and with SH-SY5Y [7] was Active. The figures for the pIC50 at Acetylcholinesterase and against Cholinesterase were 7.01 and 6.74, respectively. Besides, the inhibition in [8] came out at 64.2%; in data set [9] it was 70.3%.

Consider `CCOC(=O)c1cnc2ccc(C)cc2c1N1CCN(c2cc(C)nc3ncnn23)CC1`, for which the values for the pIC50 at Acetylcholinesterase and on Cholinesterase were 5.58 and 5.39, respectively. For the same compound, the inhibition in data set [8] is 52.5%; in data set [9], 54.3%.

In the case of `CCOC(=O)c1cnc2ccc(C)cc2c1N1CCN(c2ncccc2C#N)CC1`, the pIC50 on Acetylcholinesterase was 5.46; at Cholinesterase, 5.52. The compound also displayed an inhibition in data set [8] of 27.3%.

Regarding `CCOC(=O)c1cnc2ccc(OC)cc2c1N1CCN(c2ncccc2C#N)CC1`, the pIC50 is 5.96 against Acetylcholinesterase and 5.72 at Cholinesterase. The inhibition in data set [8] amounted to 39.8%.

For `Cc1cc(N2CCN(c3ncccc3C#N)CC2)n2ncnc2n1`, the pIC50 was 5.86 against Acetylcholinesterase and 6.11 against Cholinesterase. Besides, the inhibition amounted to 46.8% in [8] and 49.4% in data set [9].

On to `CCOC(=O)c1cnc2c(F)cccc2c1N1CCN(c2ncccc2C#N)CC1`, for which the pIC50 against Acetylcholinesterase was 6.14; against Cholinesterase, 6.05. The inhibition in data set [8] was found to be 47.4%; in data set [9] it was 50.3%.

In the case of `CCOC(=O)c1cnc2ccc(F)cc2c1N1CCN(c2ncccc2C#N)CC1`, the pIC50 on Acetylcholinesterase is 6.24; against Cholinesterase, 5.91. Further, the results for the inhibition in data set [8] and in data set [9] were 54.9% and 59%, respectively.

Consider `CCOC(=O)c1cnc2cc(C(F)(F)F)ccc2c1N1CCN(c2cc(C)nc3ncnn23)CC1`, for which the negative logarithm of the IC50 (pIC50) against Acetylcholinesterase is 6.74; against Cholinesterase, 6.11. For the same compound, the results for the inhibition in data set [8] and in data set [9] were 43.8% and 52%, respectively.

For the compound `CCOC(=O)c1cnc2ccc(F)cc2c1N1CCN(c2cc(C)nc3ncnn23)CC1`, the Ratio IC50 in data set [13] came to 3.2; in data set [10], 14; in data set [11], 74; in data set [12], 106. In addition, the inhibition result in [1] and in data set [14] was “Active” each time. Besides, the Activity entry in the data set with SH-SY5Y [2] is “Dose-dependent effect”; in [3], “Non-Toxic”; in [4] it was 79 - 83%. Also, the outcome with SH-SY5Y [5], in the data set on SH-SY5Y [6] and in the data set on SH-SY5Y [7] was Active. Further, the negative logarithm of the IC50 (pIC50) against Acetylcholinesterase is 7.38; against Cholinesterase, 6.29. Moreover, the inhibition stood at 72.9% in data set [8] and 80.5% in data set [9].
